Assay results taken from patent US8530491B2, “Antimalarial compounds with flexible side-chains” (Medicines for Malaria Venture (MMV), priority 2007, dated 2013).
Values after ≈ are worked out from the molar mass of the structure shown. Like-named read-outs stand apart in the source and are kept apart here.

Assays:
[1] = test system: P. falciparum Wild Type; experiment: Anti-malarial activity against P. falciparum in vitro, wild type (Table 1); format: cell-based, Plasmodium falciparum
[2] = test system: P. falciparum Resistant mutant; experiment: Anti-malarial activity against P. falciparum in vitro, resistant mutant (Table 1); format: cell-based, Plasmodium falciparum; settings: read-out: IC50 against P. falciparum in vitro, Resistant mutant
[3] = test system: P. chabaudi AS; experiment: Standard 4-day Peters' test against P. chabaudi AS in mice; format: in vivo, Plasmodium chabaudi; settings: for ED90 P. chabaudi AS, oral: oral administration, mice (Table 1); for ED50 / ED90: Plasmodium chabaudi, 96 h, oral, 4-day Peters' test; for ED50: 50% reduction in parasitaemia; for ED90: 90% reduction in parasitaemia
Protocol: (§1) Briefly, 20 gr CD1 male mice (Charles Rivers, UK) were kept in specific pathogen-free conditions and fed ad libitum. For oral administration, compounds were dissolved in standard suspending formula (SSV) [0.5% sodium carboxymethylcellulose, 0.5% benzyl alcohol, 0.4% Tween 80, 0.9% NaCl (all Sigma)] and for intraperitoneal or subcutaneous administration compounds were dissolved in 0.5% w/v hydroxypropylmethylcellulose, 0.4% v/v Tween 80, 0.5% V/v benzyl alcohol in de-ionised water]. Mice were infected intravenously with 4×10^6 infected red cells and treated orally (p.o.) with 0.2 ml of a solution of the test compounds two hours (day 0) and on days 1, 2 and 3 post-infection. Parasitaemia was determined by microscopic examination of Giemsa stained blood films taken on day 4. Microscopic counts of blood films from each mouse were processed using GraphPad Prism 4 (GraphPad Software, Inc., CA, USA) and expressed as percentages of inhibition from the arithmetic mean parasitaemias of each group in relation to the untreated group. Compounds were tested in an initial screening at 30 mg/kg/day against P. chabaudi AS (non-resistant) over the period described and percentages of inhibition calculated in relation to the untreated controls. Compounds giving 80% inhibition or above were then tested in the same model under a range of doses over the period described in order to obtain dose response curves and calculate their ED50 and ED90 values. […] From the ED90 values is clear that a number of compounds have exquisite activity in this model and are also tested in P. chabaudi ASP and P. berghei ANKA.

[4] = rat, in vivo
[5] = test system: P. chabaudi AS; experiment: Standard 4-day Peters' test against P. chabaudi AS in mice; format: in vivo, Plasmodium chabaudi; settings: s.c. administration, mice (Table 1)
[6] = molecular target: T1, Pf DHFR WT (Plasmodium falciparum, UniProt A7UD81); experiment: Pf DHFR enzyme inhibition (Ki), wild type; format: biochemical
T1 construct: made in house; host or cells: E. coli BL21(DE3)pLysS

[7] = molecular target: T2, Pf DHFR N51I + C59R + S108N + I164L (Plasmodium falciparum, UniProt A7UD81, C59R/I164L/N51I/S108N); experiment: biochemical
T2 construct: made in house; host or cells: E. coli BL21(DE3)pLysS

[8] = test system: P. falciparum TM4/8.2 (wild type); experiment: In vitro anti-plasmodial activity, [3H]-hypoxanthine incorporation; format: cell-based, Plasmodium falciparum
[9] = Cytotoxicity in mammalian cells; format: cell-based; settings: African green monkey, Vero cells (African green monkey kidney epithelial cells)
[10] = Pharmacokinetics of P218 / pro-drug P195 in male Swiss outbred mice; format: in vivo
Protocol: In a separate study, the oral bioavailability of P195, the ester pro-drug of P218 which contains a carboxylic acid side chain was investigated in mice. Male Swiss outbred mice were administered P218 (the free acid) intravenously by bolus tail vein injection at a nominal dose of 5 mg/kg and P195 (the ester pro-drug) orally by gavage at a nominal dose of 20 mg/kg. […] Blood sampling was conducted by cardiac puncture with a single sample per mouse, and two mice per time point over 16 hours post dosing. Blood samples were separated and plasma analyzed by LCMS as described above. The plasma concentration versus time profiles for P218 following IV administration of P218 and following oral administration of the pro-drug P195 are shown in FIG. 9. Plasma concentrations of P218 remained above the lower limit of quantitation (LLQ=0.0014 μM) for 7.5 h following IV administration.

[11] = test system: S. aureus; experiment: Antibacterial activity, minimal inhibitory concentration on agar plates; format: cell-based; settings: Staphylococcus aureus; complete inhibition of growth on agar plates
[12] = test system: E. coli; experiment: as above; format: cell-based; settings: Escherichia coli; complete inhibition of growth on agar plates
[13] = test system: P. chabaudi ASP; experiment: Standard 4-day Peters' test against P. chabaudi ASP (pyrimethamine-resistant) in mice; format: in vivo, Plasmodium chabaudi
Protocol: as §1

[14] = test system: P. berghei ANKA; experiment: Standard 4-day Peters' test against P. berghei ANKA in mice; format: in vivo, Plasmodium berghei; settings: oral, lethal non-resistant strain
Protocol: as §1

[15] = Oral bioavailability and pharmacokinetics in male Sprague Dawley rats; format: in vivo; settings: for Oral BA: i.v. and oral dosing; for Vd / clearance / half-life: rat, plasma; for Vd: intravenous; for clearance / half-life: iv, i.v. dosing; for clearance: read-out: i.v. CL(plasma); for half-life: read-out: i.v. t1/2 (converted)
Protocol: Rats had free access to water throughout the pre- and post-dose sampling period, and access to food was re-instated 4 hours post-dosing. Test compounds were administered intravenously as a 5 minute constant rate infusion (1.0 mL per rat) and orally by gavage (1.0 mL per rat). The IV formulations were typically buffered aqueous solutions containing a co-solvent if required for solubilization. The oral formulations were prepared as suspensions in hydroxypropylmethyl cellulose or carboxymethyl cellulose, each with the addition of Tween 80 and benzyl alcohol. Samples of arterial blood and total urine were collected up to 24 hours post-dose. Arterial blood was collected directly into borosilicate vials (at 4° C.) containing heparin, a protease inhibitor cocktail, potassium fluoride, and EDTA to minimise the potential for ex vivo degradation of the test compound in blood/plasma samples. Once collected, blood samples were centrifuged, supernatant plasma was removed and stored at −20° C., and plasma concentrations of test compound were determined by LCMS.

[16] = Plasmodium falciparum, read-out: IC50-P. falciparum TM4/8.2 (WT), TM4/8.2

T2 sequence (A7UD81 whole entry N51I/C59R/S108N/I164L): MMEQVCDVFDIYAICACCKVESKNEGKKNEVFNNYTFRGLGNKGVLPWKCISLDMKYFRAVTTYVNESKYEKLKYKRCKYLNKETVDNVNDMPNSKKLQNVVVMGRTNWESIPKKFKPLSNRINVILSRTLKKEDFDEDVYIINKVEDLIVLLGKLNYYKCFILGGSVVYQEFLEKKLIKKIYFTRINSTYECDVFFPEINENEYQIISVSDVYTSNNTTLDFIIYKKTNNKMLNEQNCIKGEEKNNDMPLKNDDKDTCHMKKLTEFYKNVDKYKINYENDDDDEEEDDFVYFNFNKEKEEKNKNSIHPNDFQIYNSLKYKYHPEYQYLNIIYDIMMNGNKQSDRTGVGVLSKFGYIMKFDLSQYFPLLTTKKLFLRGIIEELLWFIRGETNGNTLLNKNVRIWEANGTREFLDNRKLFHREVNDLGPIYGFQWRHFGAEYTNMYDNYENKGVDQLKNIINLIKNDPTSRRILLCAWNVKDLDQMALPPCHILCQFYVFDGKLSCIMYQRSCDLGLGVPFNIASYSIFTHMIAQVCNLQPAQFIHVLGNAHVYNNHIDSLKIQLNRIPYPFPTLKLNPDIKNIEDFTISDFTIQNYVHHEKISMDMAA
T1 sequence (A7UD81 1-608): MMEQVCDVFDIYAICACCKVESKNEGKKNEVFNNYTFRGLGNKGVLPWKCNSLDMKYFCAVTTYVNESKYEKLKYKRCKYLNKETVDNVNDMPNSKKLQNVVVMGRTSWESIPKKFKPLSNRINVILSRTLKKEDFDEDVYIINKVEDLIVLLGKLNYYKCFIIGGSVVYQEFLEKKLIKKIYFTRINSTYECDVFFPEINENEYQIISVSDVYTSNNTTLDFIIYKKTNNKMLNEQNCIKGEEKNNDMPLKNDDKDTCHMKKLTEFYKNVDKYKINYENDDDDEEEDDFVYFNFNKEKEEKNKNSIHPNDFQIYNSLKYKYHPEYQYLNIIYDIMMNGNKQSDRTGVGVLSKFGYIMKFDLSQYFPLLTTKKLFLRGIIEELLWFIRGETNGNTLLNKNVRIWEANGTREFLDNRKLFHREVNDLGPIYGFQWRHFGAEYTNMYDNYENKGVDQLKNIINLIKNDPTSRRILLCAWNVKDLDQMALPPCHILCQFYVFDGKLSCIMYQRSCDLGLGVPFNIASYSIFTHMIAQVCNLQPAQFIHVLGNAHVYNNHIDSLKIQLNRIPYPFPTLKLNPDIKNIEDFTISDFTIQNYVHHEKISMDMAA

| Structure (SMILES) | ED50 [3] [mg/kg] | ED90 [3] [mg/kg] | Ki [6] [nM] | Ki [7] [nM] | IC50 [8, 16] [nM] | IC50 [9] [nM] | MIC [11] [µM] | MIC [12] [µM] | also measured |
| --- | --- | --- | --- | --- | --- | --- | --- | --- | --- |
| CC1(C)N=C(N)N=C(N)N1c1ccc(Cl)cc1 [Cycloguanil, cycloguanil] | – | – | – | – | – | – | – | – | IC50 ([1]; Plasmodium falciparum): 37 nM; IC50 ([2]; Plasmodium falciparum): > 100000 nM; ED90 P. chabaudi AS, oral [3]: 6.2 mg/kg; Oral BA in rats [4]: 59.3%; ED90 P. chabaudi AS, s.c. [5]: 3.7 mg/kg |
| CCOC(=O)CCc1ccccc1OCCCOc1c(N)nc(N)nc1CC [Compound P195, 2,4-diamino-6-ethyl-5-(3-(2-(2-ethoxycarbonylethyl)phenoxy)propoxy)pyrimidine] | 0.21 | 0.69 | 0.26 ± 0.02 | 1.88 ± 0.13 | 2.5 ± 0.7 | 1250 | – | – | plasma concentrations of the pro-drug P195 ([10]; oral P195 20 mg/kg, all time points, below lower limit of quantitation): < 1.4 nM |
| CCc1nc(N)nc(N)c1-c1ccc(Cl)cc1 [Pyrimethamine, pyrimethamine, reference compound] | 0.25 | 0.88 | – | – | 58 ± 30 | – | > 50 | > 50 | IC50 ([1]; Plasmodium falciparum): 79 nM; IC50 ([2]; Plasmodium falciparum): > 100000 nM; ED90 P. chabaudi AS, oral [3]: 0.88 mg/kg; ED50 ([13]; Plasmodium chabaudi, po, read-out: ED50 P. chabaudi ASP): 1.8 mg/kg; ED90 P. chabaudi ASP ([13]; oral, pyrimethamine-resistant strain): 13.5 mg/kg; ED50 ([14]; Plasmodium berghei): 0.5 mg/kg; ED90 P. berghei ANKA [14]: 3.2 mg/kg; Oral BA in rats [4]: ~100%; ED90 P. chabaudi AS, s.c. [5]: 0.25 mg/kg |
| CCc1nc(N)nc(N)c1OCCCOc1ccccc1CCC(=O)O [Compound P218, 2,4-diamino-6-ethyl-5-(3-(2-(2-carboxyethyl)phenoxy)propoxy)pyrimidine] | < 0.63 | < 0.63 | 0.43 ± 0.07 | 0.54 ± 0.12 | 6 | > 10000 | – | – | time plasma concentration of P218 remained above LLQ following oral administration of ester prodrug ([10]; P195 oral 20 mg/kg, mice, LLQ=0.0014 μM): 16 h; time plasma concentrations of P218 remained above LLQ following IV administration ([10]; P218 IV 5 mg/kg, mice, LLQ=0.0014 μM): 7.5 h; bioavailability ([10]; male, Swiss outbred, mouse, plasma, oral, 20 mg/kg): ~50% |
| CCc1nc(N)nc(N)c1OCCCOc1cc(C)nc2ccc(OCCCC(=O)O)cc12 [Compound P169, 2,4-diamino-6-ethyl-5-(3-(6-(3-carboxypropoxy)-2-methylquinolin-4-yloxy)propoxy)pyrimidine] | > 29 | > 29 | 0.15 ± 0.04 | 0.36 ± 0.01 | 0.22 ± 0.06 | 420 | – | – | IC50 ([8]; read-out: IC50-P. falciparum TM4/8.2 (WT), TM4/8.2): 0.3 ± 0.1 nM |
| CC1(C)N=C(N)N=C(N)N1OCCCOc1cc(Cl)c(Cl)cc1Cl [WR99210] | – | – | – | – | – | – | – | – | IC50 ([1]; wild type): 0.6 nM; IC50 ([2]; resistant mutant): 18 nM; ED90 P. chabaudi AS, oral [3]: 74.2 mg/kg; Oral BA in rats [4]: <1%; ED90 P. chabaudi AS, s.c. [5]: 1.1 mg/kg |
| CCc1nc(N)nc(N)c1OCCCOc1cc(C)nc2ccccc12 [Compound P154, 2,4-diamino-6-ethyl-5-(3-(2-methylquinolin-4-yloxy)propoxy)pyrimidine] | 0.006 | 0.043 | 1.29 ± 0.14 | 4.8 ± 0.36 | 2 ± 0.8 | 94 | > 50 | 10 to 50 (≈ 3.53 to 17.7 µg/mL) | Oral BA [15]: 9.3 % of dose; Vd [15]: 8.8 L/kg; clearance [15]: 84.1 mL/min/kg; half-life [15]: 3.2 h |
| CCN(CC)CCCC(C)Nc1ccnc2cc(Cl)ccc12 (centres unmarked) [Chloroquine, chloroquine, reference compound] | – | – | – | – | – | – | – | – | IC50 ([8]; Plasmodium falciparum, read-out: IC50-P. falciparum TM4/8.2 (WT)): 27 nM |
| CCc1nc(N)nc(N)c1OCCCOc1cc(C)nc2cc(F)ccc12 [Compound P157, 2,4-diamino-6-ethyl-5-(3-(7-fluoro-2-methylquinolin-4-yloxy)propoxy)pyrimidine] | 0.008 | 0.012 | 1.26 ± 0.24 | 3.95 ± 0.06 | 2.4 ± 0.7 | 100 | > 25 | > 25 | Oral BA [15]: 25.5 % of dose; Vd [15]: 15.2 L/kg; clearance [15]: 74.7 mL/min/kg; half-life [15]: 17.6 h |
| CCOC(=O)CCCOc1ccccc1OCCCOc1c(N)nc(N)nc1CC [Compound P217, 2,4-diamino-6-ethyl-5-(3-(2-(3-ethoxycarbonylpropoxy)phenoxy)propoxy)pyrimidine] | < 0.63 | < 0.63 | 0.69 ± 0.1 | 3.3 ± 0.52 | 4 | 5330 | – | – | – |
| CCOC(=O)CCCOc1ccc2nc(C)cc(OCCCOc3c(N)nc(N)nc3CC)c2c1 [Compound P219, 2,4-diamino-6-ethyl-5-(3-(6-(3-ethoxycarbonylpropoxy)-2-methylquinolin-4-yloxy)propoxy)pyrimidine] | > 5 | > 5 | 0.52 ± 0.08 | 1.25 ± 0.22 | < 10 | – | – | – | – |
| C[C@H]1[C@@H](O)O[C@@H]2O[C@@]3(C)CC[C@H]4[C@H](C)CC[C@@H]1[C@@]24OO3 [Dihydroartemisinin, reference compound] | – | – | – | – | – | – | – | – | IC50 ([8]; Plasmodium falciparum, read-out: IC50-P. falciparum TM4/8.2 (WT), TM4/8.2, listed as printed in nM): 1.69 ± 0.39 nM |
| COc1cc(Cc2cnc(N)nc2N)cc(OC)c1OC [Trimethoprim, trimethoprim, reference compound] | – | – | – | – | – | – | 1 to 10 (≈ 0.29 to 2.9 µg/mL) | 1 to 10 (≈ 0.29 to 2.9 µg/mL) | – |
| CCc1nc(N)nc(N)c1OCCCOc1ccnc2ccc(F)cc12 [Compound P153, 2,4-diamino-6-ethyl-5-(3-(6-fluoro-quinolin-4-yloxy)propoxy)pyrimidine] | 0.006 | 0.013 | 1.41 ± 0.13 | 3.41 ± 0.27 | 0.25 ± 0.1 | 37 | 10 to 50 (≈ 3.57 to 17.9 µg/mL) | 10 to 50 (≈ 3.57 to 17.9 µg/mL) | Oral BA [15]: 26 % of dose; Vd [15]: 17.3 L/kg; clearance [15]: 69.6 mL/min/kg; half-life [15]: 15.7 h |
